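At the GI50, growth is halved. TGI marks complete inhibition of growth.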
Legend:
Experiment in all cases: inhibition of tumour cell growth, NCI panel, 384-well format
SNB-75 CNS = system: SNB-75 CNS
TK-10 renal = system: TK-10 renal
EKVX NSCLC = system: EKVX NSCLC
HL-60(TB) leukemia = system: HL-60(TB) leukemia
HCT-15 colon = system: HCT-15 colon
NCI-H460 NSCLC = system: NCI-H460 NSCLC
UO-31 renal = system: UO-31 renal
NCI/ADR-RES ovarian = system: NCI/ADR-RES ovarian
MDA-MB-468 breast = system: MDA-MB-468 breast
K-562 leukemia = system: K-562 leukemia
OVCAR-4 ovarian = system: OVCAR-4 ovarian
SR leukemia = system: SR leukemia
CAKI-1 renal = system: CAKI-1 renal
SF-539 CNS = system: SF-539 CNS
SF-295 CNS = system: SF-295 CNS
SF-268 CNS = system: SF-268 CNS
LOX IMVI melanoma = system: LOX IMVI melanoma
786-0 renal = system: 786-0 renal
NCI-H322M lung = system: NCI-H322M lung
A498 renal = system: A498 renal
MALME-3M melanoma = system: MALME-3M melanoma
MCF7 breast = system: MCF7 breast
MDA-MB-231 breast = system: MDA-MB-231 breast
M14 melanoma = system: M14 melanoma
HOP-92 NSCLC = system: HOP-92 NSCLC
KM12 colon = system: KM12 colon
PC-3 prostate = system: PC-3 prostate
OVCAR-8 ovarian = system: OVCAR-8 ovarian
A549 NSCLC = system: A549 NSCLC
OVCAR-3 ovarian = system: OVCAR-3 ovarian
RPMI-8226 leukemia = system: RPMI-8226 leukemia
MOLT-4 leukemia = system: MOLT-4 leukemia
HOP-62 NSCLC = system: HOP-62 NSCLC
OVCAR-5 ovarian = system: OVCAR-5 ovarian
HCC-2998 colon = system: HCC-2998 colon
SW-620 colon = system: SW-620 colon
NCI-H226 lung = system: NCI-H226 lung
HCT-116 colon = system: HCT-116 colon
SK-MEL-5 melanoma = system: SK-MEL-5 melanoma
U251 glioblastoma = system: U251 glioblastoma
SK-MEL-2 melanoma = system: SK-MEL-2 melanoma
IGROV1 ovarian = system: IGROV1 ovarian
CCRF-CEM leukemia = system: CCRF-CEM leukemia
BT-549 breast = system: BT-549 breast
HT29 colon = system: HT29 colon
MDA-MB-435 melanoma = system: MDA-MB-435 melanoma
COLO 205 colon = system: COLO 205 colon

Compound `C=CC(=O)Nc1cc(C)ccc1Nc1nc(Nc2cc(OC)ncc2C)ncc1C(F)(F)F` has a GI50 (SNB-75 CNS) of 336 nM, a TGI (SNB-75 CNS) of 1290 nM and a GI50 (TK-10 renal) of 328 nM. It also gave a TGI (TK-10 renal) of 884 nM, a GI50 (EKVX NSCLC) of 300 nM and a TGI (EKVX NSCLC) of 1620 nM. The GI50 (HL-60(TB) leukemia) was 136 nM, the TGI (HL-60(TB) leukemia) was 1070 nM and the GI50 (HCT-15 colon) was 857 nM. For the same compound, the TGI (HCT-15 colon) was 9.3 µM, the GI50 (NCI-H460 NSCLC) was 698 nM and the TGI (NCI-H460 NSCLC) was 2720 nM. It also gave a GI50 (UO-31 renal) of 394 nM, a TGI (UO-31 renal) of 2880 nM and a GI50 (NCI/ADR-RES ovarian) of 1030 nM. The TGI (NCI/ADR-RES ovarian) was 2590 nM, the GI50 (MDA-MB-468 breast) was 1150 nM and the TGI (MDA-MB-468 breast) was 2570 nM. The GI50 (K-562 leukemia) was 1520 nM, the TGI (K-562 leukemia) was greater than 100 µM and the GI50 (OVCAR-4 ovarian) was 394 nM. The TGI (OVCAR-4 ovarian) was 7.5 µM, the GI50 (SR leukemia) was 1790 nM and the TGI (SR leukemia) was 3.18 µM. For the same compound, the GI50 (CAKI-1 renal) was 401 nM, the TGI (CAKI-1 renal) was 1440 nM and the GI50 (SF-539 CNS) was 362 nM. For the same compound, the TGI (SF-539 CNS) was 1550 nM, the GI50 (SF-295 CNS) was 3.61 µM and the TGI (SF-295 CNS) was greater than 100 µM. It also gave a GI50 (SF-268 CNS) of 1500 nM, a TGI (SF-268 CNS) of 5.94 µM and a GI50 (LOX IMVI melanoma) of 169 nM. The TGI (LOX IMVI melanoma) was 423 nM, the GI50 ([…]-0 renal) was 853 nM and the TGI (786-0 renal) was greater than 100 µM. The GI50 (NCI-H322M lung) was 570 nM, the TGI (NCI-H322M lung) was 3.89 µM and the GI50 (A498 renal) was 479 nM. It also gave a TGI (A498 renal) of 1900 nM, a GI50 (MALME-3M melanoma) of 16.1 nM and a TGI (MALME-3M melanoma) of 65.8 nM. For the same compound, the GI50 (MCF7 breast) was 690 nM, the TGI (MCF7 breast) was 4.13 µM and the GI50 (MDA-MB-231 breast) was 283 nM. For the same compound, the TGI (MDA-MB-231 breast) was 1100 nM, the GI50 (M14 melanoma) was 35.5 nM and the TGI (M14 melanoma) was 194 nM. For the same compound, the GI50 (HOP-92 NSCLC) was 282 nM, the TGI (HOP-92 NSCLC) was 700 nM and the GI50 (KM12 colon) was 444 nM. It also gave a TGI (KM12 colon) greater than 100 µM, a GI50 (PC-3 prostate) of 1970 nM and a TGI (PC-3 prostate) of 99.7 µM. The GI50 (OVCAR-8 ovarian) was 1120 nM, the TGI (OVCAR-8 ovarian) was 4.19 µM and the GI50 (A549 NSCLC) was 569 nM. The TGI (A549 NSCLC) was 2050 nM, the GI50 (OVCAR-3 ovarian) was 447 nM and the TGI (OVCAR-3 ovarian) was 3.03 µM. For the same compound, the GI50 (RPMI-8226 leukemia) was 232 nM, the TGI (RPMI-8226 leukemia) was 1170 nM and the GI50 (MOLT-4 leukemia) was 879 nM. The TGI (MOLT-4 leukemia) was 2150 nM, the GI50 (HOP-62 NSCLC) was 725 nM and the TGI (HOP-62 NSCLC) was 2620 nM. The GI50 (OVCAR-5 ovarian) was 279 nM, the TGI (OVCAR-5 ovarian) was 1500 nM and the GI50 (HCC-2998 colon) was 123 nM. For the same compound, the TGI (HCC-2998 colon) was 376 nM, the GI50 (SW-620 colon) was 405 nM and the TGI (SW-620 colon) was 1680 nM. For the same compound, the GI50 (NCI-H226 lung) was 228 nM, the TGI (NCI-H226 lung) was 1810 nM and the GI50 (HCT-116 colon) was 206 nM. For the same compound, the TGI (HCT-116 colon) was 562 nM, the GI50 (SK-MEL-5 melanoma) was 147 nM and the TGI (SK-MEL-5 melanoma) was 1970 nM. The GI50 (U251 glioblastoma) was 951 nM, the TGI (U251 glioblastoma) was 2560 nM and the GI50 (SK-MEL-2 melanoma) was 113 nM. For the same compound, the TGI (SK-MEL-2 melanoma) was 271 nM, the GI50 (IGROV1 ovarian) was 233 nM and the TGI (IGROV1 ovarian) was 906 nM. It also gave a GI50 (CCRF-CEM leukemia) of 1710 nM, a TGI (CCRF-CEM leukemia) of 3.4 µM and a GI50 (BT-549 breast) of 300 nM. The TGI (BT-549 breast) was 1020 nM, the GI50 (HT29 colon) was 340 nM and the TGI (HT29 colon) was 1520 nM. The GI50 (MDA-MB-435 melanoma) was 253 nM, the TGI (MDA-MB-435 melanoma) was 1510 nM and the GI50 (COLO 205 colon) was 75.3 nM. For the same compound, the TGI (COLO 205 colon) was 1120 nM.
